Laboratory results taken from patent publication US20230365537A1, “POLO LIKE KINASE 4 INHIBITORS” (ORIC Pharmaceuticals, Inc., priority 2021, published 2023).

Key:
[1] = molecular target: human recombinant Aurora A (Homo sapiens (Human), UniProt O14965); experiment: Aurora A Kinase Biochemical Assay (ADP-Glo); details: ratio of Aurora A IC50 to PLK4 IC50 (selectivity)
Protocol: (§1) Activity of human recombinant Aurora A (ThermoFisher, cat #PR5935A) was measured by quantification of adenosine diphosphate (ADP) using the ADP-Glo Kinase Assay Kit (Promega, cat #V9102). […] 5 µL of 5.0 nM Aurora A in assay buffer (50 mM HEPES, pH 7.5, 0.01% Brij-35, 0.01% BSA, 10 mM MgCl2, 1 mM EGTA, 1 mM DTT) was added to the plates. Test compounds and Aurora A were incubated for 15 minutes at room temperature (RT). […] Reactions were stopped and the remaining ATP depleted by adding 10uL of ADP-Glo reagent (Promega, cat#V912B) and incubating for 40 minutes at RT. The simultaneous conversion of the remaining ADP to ATP and measurement of the newly synthesized ATP was achieved by addition of 20 µL Kinase Detection reagent (Promega, cat #V914B), incubation for 30 min at RT, and luminescence detection using the EnVision plate reader (PerkinElmer). […] The IC50 values reported in Table 2 were determined using four parameter non-linear regression curve fit.

[2] = molecular target: human recombinant Aurora B (Homo sapiens (Human), UniProt Q96GD4); experiment: Aurora B Kinase Biochemical Assay (ADP-Glo); details: ratio of Aurora B IC50 to PLK4 IC50 (selectivity)
Protocol: as §1, with “Aurora B” for “Aurora A”, “cat #PR9210B)” for “cat #PR5935A)”, “of 20” for “of 5.0”

human recombinant PLK4 = human recombinant PLK4 (Homo sapiens (Human), UniProt O00444); experiment: PLK4 Biochemical Assay (ADP-Glo); details: 0.5 nM PLK4, 8.0 µM ATP, 4.7 µM MBP, 6 hours at RT
Protocol: as §1, with “recombinant PLK4” for “recombinant Aurora A”, “cat #PV6396)” for “cat #PR5935A)”, “of 1.0” for “of 5.0”, “nM PLK4 protein” for “nM Aurora A”, “and PLK4” for “and Aurora A”, “adding 10 µL” for “adding 10uL”

human recombinant PLK4, sequence (O00444 whole entry): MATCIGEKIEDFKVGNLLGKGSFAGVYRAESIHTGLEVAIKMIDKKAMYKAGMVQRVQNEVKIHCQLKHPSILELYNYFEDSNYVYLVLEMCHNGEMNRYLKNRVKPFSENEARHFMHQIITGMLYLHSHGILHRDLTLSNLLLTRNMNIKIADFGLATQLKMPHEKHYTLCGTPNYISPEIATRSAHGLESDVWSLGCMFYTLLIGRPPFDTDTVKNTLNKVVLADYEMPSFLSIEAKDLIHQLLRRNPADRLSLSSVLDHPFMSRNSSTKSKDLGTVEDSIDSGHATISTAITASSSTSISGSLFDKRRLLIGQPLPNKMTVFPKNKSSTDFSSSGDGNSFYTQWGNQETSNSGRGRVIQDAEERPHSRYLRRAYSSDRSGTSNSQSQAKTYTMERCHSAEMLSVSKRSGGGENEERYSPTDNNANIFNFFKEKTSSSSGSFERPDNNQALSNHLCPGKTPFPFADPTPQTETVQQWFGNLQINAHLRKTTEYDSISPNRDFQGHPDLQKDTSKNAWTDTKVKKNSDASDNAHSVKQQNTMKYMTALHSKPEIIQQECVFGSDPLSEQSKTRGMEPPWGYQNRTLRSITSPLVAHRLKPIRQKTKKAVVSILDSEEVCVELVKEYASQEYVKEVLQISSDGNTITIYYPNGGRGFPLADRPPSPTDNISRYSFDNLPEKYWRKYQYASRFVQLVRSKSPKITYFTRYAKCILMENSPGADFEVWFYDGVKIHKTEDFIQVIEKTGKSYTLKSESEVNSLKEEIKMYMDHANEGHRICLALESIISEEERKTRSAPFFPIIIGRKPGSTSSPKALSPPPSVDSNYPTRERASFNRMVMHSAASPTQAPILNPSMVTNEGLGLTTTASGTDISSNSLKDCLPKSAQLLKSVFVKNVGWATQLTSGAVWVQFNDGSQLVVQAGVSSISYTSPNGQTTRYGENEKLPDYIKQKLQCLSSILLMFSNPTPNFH
human recombinant Aurora A, sequence (O14965 whole entry): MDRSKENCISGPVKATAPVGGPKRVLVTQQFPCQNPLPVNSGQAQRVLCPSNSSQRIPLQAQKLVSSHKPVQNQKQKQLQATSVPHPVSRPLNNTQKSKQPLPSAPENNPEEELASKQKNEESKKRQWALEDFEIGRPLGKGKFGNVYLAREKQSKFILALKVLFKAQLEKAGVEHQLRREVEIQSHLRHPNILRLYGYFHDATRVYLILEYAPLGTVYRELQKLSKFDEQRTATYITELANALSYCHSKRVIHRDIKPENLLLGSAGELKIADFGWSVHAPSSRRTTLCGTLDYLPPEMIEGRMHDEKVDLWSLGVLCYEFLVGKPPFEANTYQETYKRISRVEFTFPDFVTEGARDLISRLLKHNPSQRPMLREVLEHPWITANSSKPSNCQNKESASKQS
human recombinant Aurora B, sequence (Q96GD4 whole entry): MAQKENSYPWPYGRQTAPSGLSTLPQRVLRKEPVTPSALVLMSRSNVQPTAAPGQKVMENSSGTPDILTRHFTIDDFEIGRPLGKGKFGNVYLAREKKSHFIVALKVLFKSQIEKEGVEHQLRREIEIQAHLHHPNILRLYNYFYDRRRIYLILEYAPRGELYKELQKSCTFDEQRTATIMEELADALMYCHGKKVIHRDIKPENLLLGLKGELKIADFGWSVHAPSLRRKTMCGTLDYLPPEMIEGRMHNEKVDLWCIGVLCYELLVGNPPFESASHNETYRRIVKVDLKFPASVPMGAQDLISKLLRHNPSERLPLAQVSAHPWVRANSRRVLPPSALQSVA

COc1ccc2c(c1)[C@]1(C[C@H]1c1ccc3c(Nc4cc(C(C)O)cnc4OC)n[nH]c3c1)C(=O)N2 (mixture of isomers) [Example 271, (1R,2S)-2-(3-{[5-(1-hydroxyethyl)-2-methoxypyridin-3-yl]amino}-1H-indazol-6-yl)-5′-methoxyspiro[cyclopropane-1,3′-indol]-2′(1′H)-one]
[Aurora A IC50 (nM)]/[PLK4 IC50 (nM)] [1]: 825.7199
[Aurora B IC50 (nM)]/[PLK4 IC50 (nM)] [2]: 492.8831
IC50 (human recombinant PLK4): 6.04 nM

COc1ccc2c(c1)[C@]1(C[C@H]1c1ccc3c(Nc4ncncc4OC)n[nH]c3c1)C(=O)N2 (racemic) [Example 1, racemic-5′-Methoxy-2-{3-[(5-methoxypyrimidin-4-yl)amino]-1H-indazol-6-yl}spiro[cyclopropane-1,3′-indol]-2′(1′H)-one]
IC50 (human recombinant PLK4): 3.5 nM

COc1ccc2c(c1)[C@]1(C[C@H]1c1ccc3c(Nc4ncncc4C)n[nH]c3c1)C(=O)N2 (racemic) [Example 2, racemic-5′-Methoxy-2-{3-[(5-methylpyrimidin-4-yl)amino]-1H-indazol-6-yl)spiro[cydopropane-1,3′-indol]-2′(1′H)-one]
[Aurora A IC50 (nM)]/[PLK4 IC50 (nM)] [1]: 318.03
[Aurora B IC50 (nM)]/[PLK4 IC50 (nM)] [2]: 15.6544
IC50 (human recombinant PLK4): 29.3 nM

COc1ccc2c(c1)[C@]1(C[C@H]1c1ccc3c(Nc4ncncc4Cl)n[nH]c3c1)C(=O)N2 (racemic) [Example 3, racemic-2-{3-[(5-Chloropyrimidin-4-yl)amino]-1H-indazol-6-yl}-5′-methoxyspiro[cydopropane-13′-indol]-2′(1′H)-one]
IC50 (human recombinant PLK4): 9.95 nM

COc1ccc2c(c1)[C@]1(C[C@H]1c1ccc3c(Nc4nccc5c4OC[C@H]5CO)n[nH]c3c1)C(=O)N2 (single isomer, unassigned) [Example 34]
[Aurora A IC50 (nM)]/[PLK4 IC50 (nM)] [1]: 893.3126
[Aurora B IC50 (nM)]/[PLK4 IC50 (nM)] [2]: 19.96
IC50 (human recombinant PLK4): 3.21 nM

COc1ccc2c(c1)[C@]1(C[C@H]1c1ccc3c(Nc4nc(C5CCOC5)ncc4OC)n[nH]c3c1)C(=O)N2 (single isomer, unassigned) [Example 200]
[Aurora A IC50 (nM)]/[PLK4 IC50 (nM)] [1]: 906.0197
[Aurora B IC50 (nM)]/[PLK4 IC50 (nM)] [2]: 523.3415
IC50 (human recombinant PLK4): 3.26 nM

COc1ccc2c(c1)[C@]1(C[C@H]1c1ccc3c(Nc4nc(C)nc5c4C(C)SC5)n[nH]c3c1)C(=O)N2 (single isomer, unassigned) [Example 211]
[Aurora A IC50 (nM)]/[PLK4 IC50 (nM)] [1]: 531.9935
[Aurora B IC50 (nM)]/[PLK4 IC50 (nM)] [2]: 218.4107
IC50 (human recombinant PLK4): 8.66 nM

COc1ccc2c(c1)[C@]1(C[C@H]1c1ccc3c(Nc4cccc5c4OCC5O)n[nH]c3c1)C(=O)N2 (stereo in doubt) [Example 27, 2-{3-[(3-hydroxy-2,3-dihydro-1-benzofuran-7-yl)amino]-1H-indazol-6-yl)-5′-methoxyspiro[cyclopropane-1,3′-indol]-2′(1′H)-one]
IC50 (human recombinant PLK4): 2.08 nM

COc1ccc2c(c1)[C@]1(C[C@H]1c1ccc3c(Nc4cccc5c4OC[C@H]5O)n[nH]c3c1)C(=O)N2 (stereo in doubt) [Example 28]
IC50 (human recombinant PLK4): 0.375 nM

COc1ccc2c(c1)[C@]1(C[C@H]1c1ccc3c(Nc4ncncc4OC)n[nH]c3c1)C(=O)N2 [Example 4, (1R,2S)-5′-Methoxy-2-{3-[(5-methoxypyrimidin-4-yl)amino]-1H-indazol-6-yl}spiro[cyclopropane-1,3′-indol]-2′(1′H)-one]
[Aurora A IC50 (nM)]/[PLK4 IC50 (nM)] [1]: 465.4867
[Aurora B IC50 (nM)]/[PLK4 IC50 (nM)] [2]: 11.45
IC50 (human recombinant PLK4): 3.96 nM

CCOc1cncnc1Nc1n[nH]c2cc([C@@H]3C[C@@]34C(=O)Nc3ccc(OC)cc34)ccc12 [Example 5, (1R,2S)-2-[3-[(5-ethoxypyrimidin-4-yl)amino]-1H-indazol-6-yl]-5′-methoxy-spiro[cyclopropane-1,3′-indoline]-2′-one]
IC50 (human recombinant PLK4): 2.18 nM

COc1ccc2c(c1)[C@]1(C[C@H]1c1ccc3c(Nc4ncncc4C4CC4)n[nH]c3c1)C(=O)N2 [Example 6, (1R,2S)-2-{3-[(5-cyclopropylpyrimidin-4-yl)amino]-1H-indazol-6-yl}-5′-methoxyspiro[cyclopropane-1,3′-indol]-2′(1′H)-one]
IC50 (human recombinant PLK4): 18.2 nM

COc1ccc2c(c1)[C@]1(C[C@H]1c1ccc3c(Nc4ncncc4Cl)n[nH]c3c1)C(=O)N2 [Example 7]
[Aurora A IC50 (nM)]/[PLK4 IC50 (nM)] [1]: 693.5732
[Aurora B IC50 (nM)]/[PLK4 IC50 (nM)] [2]: 47.27
IC50 (human recombinant PLK4): 4.56 nM

COc1ccc2c(c1)[C@@]1(C[C@@H]1c1ccc3c(Nc4ncncc4OC)n[nH]c3c1)C(=O)N2 [Example 8, (IS,2R)-5′-Methoxy-2-{3-[(5-methoxypyrimidin-4-yl)amino]-1H-indazol-6-yl}spiro[cyclopropane-1,3′-indol]-2′(1′H)-one]
[Aurora A IC50 (nM)]/[PLK4 IC50 (nM)] [1]: 17.61
[Aurora B IC50 (nM)]/[PLK4 IC50 (nM)] [2]: 32.99
IC50 (human recombinant PLK4): 492 nM

COc1ccc2c(c1)[C@]1(C[C@H]1c1ccc3c(Nc4nccnc4OC)n[nH]c3c1)C(=O)N2 [Example 13, (1R,2S)-5′-methoxy-2-{3-[(3-methoxypyrazin-2-yl)amino)-1H-indazol-6-yl}spiro[cyclopropane-1,3′-indol]-2′(1′H)-one]
[Aurora A IC50 (nM)]/[PLK4 IC50 (nM)] [1]: 667.5585
[Aurora B IC50 (nM)]/[PLK4 IC50 (nM)] [2]: 10.3
IC50 (human recombinant PLK4): 2.99 nM

COc1ccc2c(c1)[C@]1(C[C@H]1c1ccc3c(Nc4cc(OC)ncn4)n[nH]c3c1)C(=O)N2 [Example 14, (1R,2S)-5′-methoxy-2-{3-[(6-methoxypyrimidin-4-yl)amino]-1H-indazol-6-yl}spiro[cyclopropane-1,3′-indol]-2′(1′H)-one]
[Aurora A IC50 (nM)]/[PLK4 IC50 (nM)] [1]: 74.16
[Aurora B IC50 (nM)]/[PLK4 IC50 (nM)] [2]: 3.866
IC50 (human recombinant PLK4): 36 nM

COc1ccc2c(c1)[C@]1(C[C@H]1c1ccc3c(Nc4ncnc5c4CCC5)n[nH]c3c1)C(=O)N2 [Example 15, (1R,2S)-2-{3-[(6,7-dihydro-5H-cyclopenta[d]pyrimidin-4-yl)amino]-1H-indazol-6-yl}-5′-methoxyspiro[cyclopropane-1,3′-indol]-2′(1′H)-one]
IC50 (human recombinant PLK4): 45.7 nM

COc1ccc2c(c1)[C@]1(C[C@H]1c1ccc3c(Nc4cnccc4OC)n[nH]c3c1)C(=O)N2 [Example 18]
IC50 (human recombinant PLK4): 22.9 nM

COc1ccc2c(c1)[C@]1(C[C@H]1c1ccc3c(Nc4ccncc4OC)n[nH]c3c1)C(=O)N2 [Example 19, (1R,2S)-5′-methoxy-2-{3-[(3-methoxypyridin-4-yl)amino]-1H-indazol-6-yl}spiro[cyclopropane-1,3′-indol]-2′(1′H)-one]
IC50 (human recombinant PLK4): 24.8 nM

COc1ccc2c(c1)[C@]1(C[C@H]1c1ccc3c(Nc4c(C)nn(C)c4C)n[nH]c3c1)C(=O)N2 [Example 21, (1R,2S)-5′-methoxy-2-{3-[(1,3,5-trimethyl-1H-pyrazol-4-yl)amino]-1H-indazol-6-yl)spiro[cyclopropane-1,3′-indol]-2′(1′H)-one]
IC50 (human recombinant PLK4): 41.7 nM

COc1ccc2c(c1)[C@]1(C[C@H]1c1ccc3c(Nc4ncncc4C(F)(F)F)n[nH]c3c1)C(=O)N2 [Example 22, (1R,2S)-5′-methoxy-2-(3-{[5-(trifluoromethyl)pyrimidin-4-yl]amino}-1H-indazol-6-yl)spiro[cyclopropane-1,3′-indol]-2′(1′H)-one]
IC50 (human recombinant PLK4): 39.8 nM

COc1ccc2c(c1)[C@]1(C[C@H]1c1ccc3c(Nc4cccnc4OC)n[nH]c3c1)C(=O)N2 [Example 24]
IC50 (human recombinant PLK4): 2.25 nM

COc1ccc2c(c1)[C@]1(C[C@H]1c1ccc3c(Nc4cccc5ccoc45)n[nH]c3c1)C(=O)N2 [Example 26]
IC50 (human recombinant PLK4): 3.85 nM

COc1ccc2c(c1)[C@]1(C[C@H]1c1ccc3c(Nc4cccc5c4OC[C@@H]5O)n[nH]c3c1)C(=O)N2 [Example 29, (1R,2S)-2-(3-{[(3R)-3-hydroxy-2,3-dihydro-1-benzofuran-7-yl]amino)-1H-indazol-6-yl)-5′-methoxyspiro[cyclopropane-1,3′-indol]-2′(1′H)-one]
IC50 (human recombinant PLK4): 5.97 nM
